Laboratory results taken from patent publication US10226453B2, “3-(1H-indol-2-yl)-1H-pyrazolo[4,3-B]pyridines and therapeutic uses thereof” (Samumed, LLC, priority 2015, dated 2019).

How the values were obtained:
Type in all cases: cell-based
IL-6 (THP-1 cells) = assay: IL-6 inhibition in LPS-stimulated THP-1 human monocyte cells (HTRF); conditions: LPS 500 ng/mL, 22 hours, IL6 HTRF
Method: Human monocyte cell line (THP-1 cells; Catalog # TIB-202, ATCC, Manassas, Va.) were cultured in Roswell Park Memorial Institute (RPMI) 1640 Medium (Catalog #21870-100, Buffalo, N.Y.) with 1% L-glutamine, 1% HEPES, 1% Sodium Pyruvate, 2% Sodium Bicarbonate supplemented with 100 units/mL penicillin, 50 μg/mL streptomycin, 2-mercaptoethanol (0.05 mM) [basal medium] and 10% fetal bovine serum (Catalog #16140089, Life Technologies, Carlsbad, Calif.) at 37° C. and 5% CO2.
THP-1 cells were cultured in basal media with 1% FBS for 24 hours before the start of the assay. Each compound was dissolved in DMSO as a 10 mM stock and used to prepare compound source plates. Serial dilution (1:3, 10-point dose-response curves starting from 10 μM) and compound transfer was performed using the ECHO 550 (Labcyte, Sunnyvale, Calif.) into 384-well white low volume assay plates (Greiner Bio-One) with appropriate DMSO backfill for a final DMSO concentration of 0.1%. THP-1 cells were plated at 5000 cells/well in the 384-well plates and incubated at 37° C. for 2 h. 500 ng/mL of LPS was added after 2 hours and cells were incubated for another 22 hours at 37° C. Plates were spun in a centrifuge for 1 minute at […] and a mixture of anti-IL6 XL665, and anti-IL6 Cryptate diluted in reconstitution buffer (Cisbio Inc.) was added to each well. Following incubation for 3 hrs at room temperature, Homogeneous Time-Resolved Fluorescence (HTRF) was measured using the Envision (Perkin Elmer) at 665 nm and […]. The ratio of fluorescence at 665 nm to 620 nm was used as a readout for IL6 quantification. All samples were processed in duplicate. Readings were normalized to DMSO treated cells and normalized activities were utilized for EC50 calculations using the dose-response log (inhibitor) vs. response-variable slope (four parameters) nonlinear regression feature available in GraphPad Prism 5.0 (or Dotmatics). For EC50 of >10 μM, the percent inhibition at 10 μM is provided.

SW480 colon cancer cells = assay: Cell viability assay (CellTiter-Blue), SW480 colon cancer cells; conditions: Homo sapiens, 96 h, four days, CellTiter-Blue
Method: Representative compounds were screened using the following assay procedure to assess the effect on cell viability as described below.
Each compound was dissolved in DMSO as a 10 mM stock and used to prepare compound source plates. Serial dilution (1:3, 8-point dose-response curves from 10 μM to 0.0045 μM) and compound transfer was performed using the ECHO 550 (Labcyte, Sunnyvale, Calif.) into 96-well clear bottom, black-walled plates (Corning—Costar).
Approximately 2×10^3 SW480 colon cancer cells were seeded into each well and allowed to incubate in the presence or absence of compound for four days at 37° C./5% CO2. Eight replicates of DMSO-treated cells served as controls and cells treated with compound were performed in duplicate.
After incubation, 20 μL of CellTiter-Blue (Promega) was added to each well allowed to incubate for approximately 3 hours. This reagent was a buffered solution which contains resazurin, metabolically active cells were able to reduce rezarurin (blue) into resorufin (pink) which was highly fluorescent. This measured fluorescence was used as a readout for cell viability.
After incubation, the plates were read at Ex 560 nm Em 590 nm (Cytation 3, BioTek). Dose-response curves were generated and EC50 concentration values were calculated using non-linear regression curve fit in the GraphPad Prism (San Diego, Calif.) or Dotmatics' Studies Software (Bishops Stortford, UK). For EC50 of >10 μM, the percent inhibition at 10 μM is provided.

[1] = test system: Wnt activity (Sp5-Luc reporter, SW480 colon carcinoma cells); assay: Wnt activity screening assay: Sp5-Luc reporter gene in SW480 colon carcinoma cells; conditions: Homo sapiens, overnight incubation, 10-point curve from 10 μM
From the text: The screening assay for Wnt activity is described as follows. Reporter cell lines can be generated by stably transducing cancer cell lines (e.g., colon cancer) or primary cells (e.g., IEC-6 intestinal cells) with a lentiviral construct that includes a Wnt-responsive promoter driving expression of the firefly luciferase gene.
SW480 colon carcinoma cells were transduced with a lentiviral vector expressing luciferase with a human Sp5 promoter consisting of a sequence of eight TCF/LEF binding sites. SW480 cells stably expressing the Sp5-Luc reporter gene and a hygromycin resistance gene were selected by treatment with 150 μg/mL of hygromycin for 7 days. These stably transduced SW480 cells were expanded in cell culture and used for all further screening activities. Each compound was dissolved in DMSO as a 10 mM stock and used to prepare compound source plates. Serial dilution (1:3, 10-point dose-response curves starting from 10 μM) and compound transfer was performed using the ECHO 550 (Labcyte, Sunnyvale, Calif.) into 384-well white solid bottom assay plates (Greiner Bio-One) with appropriate DMSO backfill for a final DMSO concentration of 0.1%. For Sp5-Luc reporter gene assays, the cells were plated at 4,000 cells/well in 384-well plates with medium containing 1% fetal bovine serum and incubated overnight at 37° C. and 5% CO2. Following incubation, 20 μl of BrightGlo luminescence reagent (Promega) was added to each well of the 384-well assay plates. The plates were placed on an orbital shaker for 2 min and then luminescence was quantified using the Envision (Perkin Elmer) plate reader. Readings were normalized to DMSO only treated cells, and normalized activities were utilized for EC50 calculations using the dose-response log (inhibitor) vs. response-variable slope (four parameters) nonlinear regression feature available in GraphPad Prism 5.0 (or Dotmatics). For EC50 of >10 μM, the percent inhibition at 10 μM is provided.

[2] = test system: primary human fibroblasts derived from IPF patients (LL29 cells) treated with TGF-β1; assay: Inhibition of the fibrotic process: αSMA staining in TGF-β1 treated primary human fibroblasts from IPF patients (LL29 cells); conditions: Fibroblast, 96 h, TGF-β1 20 ng/mL, 4 days, % αSMA positive cells
From the text: Representative compounds were screened using primary human fibroblasts (derived from IPF patients) treated with TGF-β1 to determine their ability to inhibit the fibrotic process.
Primary human fibroblasts derived from IPF patients (LL29 cells) [^1Xiaoqiu Liu, et. al., “Fibrotic Lung Fibroblasts Show Blunted Inhibition by cAMP Due to Deficient cAMP Response Element-Binding Protein Phosphorylation”, Journal of Pharmacology and Experimental Therapeutics (2005), 315(2), 678-687; ^2Watts, K. L., et. al., “RhoA signaling modulates cyclin D1 expression in human lung fibroblasts; implications for idiopathic pulmonary fibrosis”, Respiratory Research (2006), 7(1), 88] were obtained from American Type Culture Collection (ATCC) and expanded in F12 medium supplemented with 15% Fetal Bovine Serum and Penicillin/Streptomycin.
Each compound was dissolved in DMSO as a 10 mM stock and used to prepare compound source plates. Serial dilution (1:2, 11-point dose-response curves from 10 μM to 1.87 nM) and compound transfer was performed using the ECHO 550 (Labcyte, Sunnyvale, Calif.) into 384-well clear bottom assay plates (Greiner Bio-One) with appropriate DMSO backfill for a final DMSO concentration of 0.1%. LL29 cells are plated at 1,500 cells/well in 80 μL/well F12 medium supplemented with 1% Fetal Bovine Serum. One hour after addition of the cells, TGF-β1 (Peprotech; 20 ng/mL) was added to the plates to induce fibrosis (ref. 1 and 2 above). Wells treated with TGF-β1 and containing DMSO were used as controls. Cells were incubated at 37° C. and 5% CO2 for 4 days. Following incubation for 4 days, SYTOX green nucleic acid stain (Life Technologies [Thermo Fisher Scientific]) was added to the wells at a final concentration of 1 μM and incubated at room temperature for 30 min. Cells were then fixed using 4% formaldehyde (Electron Microscopy Sciences), washed 3 times with PBS followed by blocking and permeabilization using 3% Bovine Serum Albumin (BSA; Sigma) and 0.3% Triton X-100 (Sigma) in PBS. Cells were then stained with antibody specific to α-smooth muscle actin (αSMA; Abcam) (ref. 1 and 2 above) in 3% Bovine Serum Albumin (BSA; Sigma) and 0.3% Triton X-100 (Sigma) in PBS, and incubated overnight at 4° C. Cells were then washed 3 times with PBS, followed by incubation with Alexa Flor-647 conjugated secondary antibody (Life Technologies [Thermo Fisher Scientific]) and DAPI at room temperature for 1 hour. Cells were then washed 3 times with PBS and plates were sealed for imaging. αSMA staining was imaged by excitation at 630 nm and emission at 665 nm and quantified using the Compartmental Analysis program on the CellInsight CX5 (Thermo Scientific). Dead or apoptotic cells were excluded from analysis based on positive SYTOX green staining. % of total cells positive for αSMA were counted in each well and normalized to the average of 11 wells treated with TGF-β1 on the same plate using Dotmatics' Studies Software. The normalized averages (fold change over untreated) of 3 replicate wells for each compound concentration were used to create dose-responses curves and EC50 values were calculated using non-linear regression curve fit in the Dotmatics' Studies Software. For EC50 of >10 μM, the percent inhibition at 10 μM is provided.

EC50 (IL-6 (THP-1 cells)) [nM]	EC50 (SW480 colon cancer cells) [nM]	EC50 [1] [nM]	SMILES	EC50 [2] [nM]
439	9660	209	Fc1cccc(-c2cccc3[nH]c(-c4n[nH]c5ccc(-c6cccnc6)nc45)cc23)c1 [Compound 4, 3-(4-(3-Fluorophenyl)-1H-indol-2-yl)-5-(pyridin-3-yl)-1H-pyrazolo[4,3-b] pyridine]	974
1010	6570	1630	O=C(Nc1cncc(-c2ccc3[nH]nc(-c4cc5c(-c6cccc(F)c6)cccc5[nH]4)c3n2)c1)C1CCCCC1 [Compound 23, N-(5-(3-(4-(3-Fluorophenyl)-1H-indol-2-yl)-1H-pyrazolo[4,3-b]pyridin-5-yl)pyridin-3-yl)cyclohexanecarboxamide]	1280
530	3110	981	Fc1cccc(-c2cccc3[nH]c(-c4n[nH]c5ccc(-c6cncc(CN7CCC(F)(F)C7)c6)nc45)cc23)c1 [Compound 26, 5-(5-((3,3-Difluoropyrrolidin-1-yl)methyl)pyridin-3-yl)-3-(4-(3-fluorophenyl)-1H-indol-2-yl)-1H-pyrazolo[4,3-b]pyridine]	409
388	6740	1020	Cc1ccncc1-c1ccc2[nH]nc(-c3cc4c(-c5ccc(F)cc5)cccc4[nH]3)c2n1 [Compound 33, 3-(4-(4-Fluorophenyl)-1H-indol-2-yl)-5-(4-methylpyridin-3-yl)-1H-pyrazolo [4,3-b]pyridine]	1230
72	1210	254	CC(C)CC(=O)Nc1cncc(-c2ccc3[nH]nc(-c4cc5c(-c6ccccc6F)cccc5[nH]4)c3n2)c1 [Compound 58, N-(5-(3-(4-(2-Fluorophenyl)-1H-indol-2-yl)-1H-pyrazolo[4,3-b]pyridin-5-yl)pyridin-3-yl)-3-methylbutanamide]	628
51	895	164	O=C(Nc1cncc(-c2ccc3[nH]nc(-c4cc5c(-c6ccccc6F)cccc5[nH]4)c3n2)c1)C1CC1 [Compound 76, N-(5-(3-(4-(2-Fluorophenyl)-1H-indol-2-yl)-1H-pyrazolo[4,3-b]pyridin-5-yl)pyridin-3-yl)cyclopropanecarboxamide]	502
75	604	107	CC(C)Nc1cncc(-c2ccc3[nH]nc(-c4cc5c(-c6cccnc6)cccc5[nH]4)c3n2)c1 [Compound 96, N-Isopropyl-5-(3-(4-(pyridin-3-yl)-1H-indol-2-yl)-1H-pyrazolo[4,3-b]pyridin-5-yl)pyridin-3-amine]	214
126	2150	253	c1cncc(-c2ccc3[nH]nc(-c4cc5c(N6CCCCC6)cccc5[nH]4)c3n2)c1 [Compound 172, 3-(4-(Piperidin-1-yl)-1H-indol-2-yl)-5-(pyridin-3-yl)-1H-pyrazolo[4,3-b] pyridine]	295
1520	3150	899	CN(C)Cc1cncc(-c2ccc3[nH]nc(-c4cc5c(N6CCCCC6)cccc5[nH]4)c3n2)c1 [Compound 181, N,N-Dimethyl-1-(5-(3-(4-(piperidin-1-yl)-1H-indol-2-yl)-1H-pyrazolo[4,3-b]pyridin-5-yl)pyridin-3-yl)methanamine]	870
31	5590	1180	c1cc(N2CCCCC2)c2cc(-c3n[nH]c4ccc(-c5cncnc5)nc34)[nH]c2c1 [Compound 195, 3-(4-(Piperidin-1-yl)-1H-indol-2-yl)-5-(pyrimidin-5-yl)-1H-pyrazolo[4,3-b] pyridine]	1280
359	1930	2140	CC(C)CC(=O)Nc1cncc(-c2ccc3[nH]nc(-c4cc5c(N6CCN(C)CC6)cccc5[nH]4)c3n2)c1 [Compound 226, 3-Methyl-N-(5-(3-(4-(4-methylpiperazin-1-yl)-1H-indol-2-yl)-1H-pyrazolo [4,3-b]pyridin-5-yl)pyridin-3-yl)butanamide]	2550
